Results from ChEMBL document CHEMBL3608284, “C4 phenyl aporphines with selective h5-HT(2B) receptor affinity” (Bioorg Med Chem Lett, 2015).

Tests used:
[1] = target: T1, 5-hydroxytryptamine receptor 2C (Homo sapiens) (UniProt P28335); assay: Displacement of [3H]mesulergine from 5HT2C receptor (unknown origin) at 10 uM
T1 sequence (whole entry): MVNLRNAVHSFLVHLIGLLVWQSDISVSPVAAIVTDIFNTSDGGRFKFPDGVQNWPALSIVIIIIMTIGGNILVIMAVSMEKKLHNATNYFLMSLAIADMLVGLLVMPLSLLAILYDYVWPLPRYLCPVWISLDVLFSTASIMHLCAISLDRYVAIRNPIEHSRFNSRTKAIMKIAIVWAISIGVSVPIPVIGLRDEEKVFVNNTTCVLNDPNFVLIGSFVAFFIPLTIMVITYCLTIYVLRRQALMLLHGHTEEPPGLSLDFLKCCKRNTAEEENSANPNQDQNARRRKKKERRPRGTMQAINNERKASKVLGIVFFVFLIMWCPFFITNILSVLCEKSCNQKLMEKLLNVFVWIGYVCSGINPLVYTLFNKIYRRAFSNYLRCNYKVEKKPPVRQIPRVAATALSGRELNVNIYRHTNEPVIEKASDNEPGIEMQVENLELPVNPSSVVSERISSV

[2] = target: 5-hydroxytryptamine receptor 5A (Homo sapiens) (UniProt P47898); assay: Displacement of [3H]LSD from 5HT5A receptor (unknown origin) at 10 uM
[3] = target: T2, 5-hydroxytryptamine receptor 1B (Homo sapiens, UniProt P28222); assay: Displacement of [3H]GR125743 from 5HT1B receptor (unknown origin) at 10 uM
[4] = target: 5-hydroxytryptamine receptor 1D (Homo sapiens) (UniProt P28221); assay: Displacement of [3H]GR125743 from 5HT1D receptor (unknown origin) at 10 uM
[5] = target: 5-hydroxytryptamine receptor 2A (Homo sapiens) (UniProt P28223); assay: Displacement of [3H]ketanserin from 5HT2A receptor (unknown origin) at 10 uM
[6] = target: T2, 5-hydroxytryptamine receptor 1B; assay: Displacement of [3H]GR125743 from 5HT1B receptor (unknown origin)
[7] = target: T3, 5-hydroxytryptamine receptor 3A (Homo sapiens) (UniProt P46098); assay: Displacement of [3H]LY278584 from 5HT3 receptor (unknown origin) at 10 uM
T3 sequence (whole entry): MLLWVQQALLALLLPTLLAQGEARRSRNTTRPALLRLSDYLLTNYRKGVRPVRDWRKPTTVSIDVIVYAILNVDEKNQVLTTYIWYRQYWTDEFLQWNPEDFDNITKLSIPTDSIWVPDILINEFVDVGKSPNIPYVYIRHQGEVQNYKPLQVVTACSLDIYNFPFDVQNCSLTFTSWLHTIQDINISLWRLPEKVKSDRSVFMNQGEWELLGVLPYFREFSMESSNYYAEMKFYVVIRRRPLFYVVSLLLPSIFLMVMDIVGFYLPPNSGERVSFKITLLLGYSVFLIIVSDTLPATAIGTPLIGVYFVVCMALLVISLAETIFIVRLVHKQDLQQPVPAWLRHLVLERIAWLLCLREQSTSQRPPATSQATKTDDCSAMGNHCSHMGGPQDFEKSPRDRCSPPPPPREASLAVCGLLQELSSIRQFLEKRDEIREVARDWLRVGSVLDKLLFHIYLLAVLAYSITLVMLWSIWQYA

[8] = target: 5-hydroxytryptamine receptor 1E (Homo sapiens) (UniProt P28566); assay: Displacement of [3H]5HT from 5HT1E receptor (unknown origin) at 10 uM
[9] = target: 5-hydroxytryptamine receptor 7 (Homo sapiens) (UniProt P34969); assay: Displacement of [3H]LSD from 5HT7 receptor (unknown origin) at 10 uM
[10] = target: T4, 5-hydroxytryptamine receptor 1A (Homo sapiens) (UniProt P08908); assay: Displacement of [3H]-8-OH-DPAT from 5HT1A receptor (unknown origin) at 10 uM
T4 sequence (whole entry): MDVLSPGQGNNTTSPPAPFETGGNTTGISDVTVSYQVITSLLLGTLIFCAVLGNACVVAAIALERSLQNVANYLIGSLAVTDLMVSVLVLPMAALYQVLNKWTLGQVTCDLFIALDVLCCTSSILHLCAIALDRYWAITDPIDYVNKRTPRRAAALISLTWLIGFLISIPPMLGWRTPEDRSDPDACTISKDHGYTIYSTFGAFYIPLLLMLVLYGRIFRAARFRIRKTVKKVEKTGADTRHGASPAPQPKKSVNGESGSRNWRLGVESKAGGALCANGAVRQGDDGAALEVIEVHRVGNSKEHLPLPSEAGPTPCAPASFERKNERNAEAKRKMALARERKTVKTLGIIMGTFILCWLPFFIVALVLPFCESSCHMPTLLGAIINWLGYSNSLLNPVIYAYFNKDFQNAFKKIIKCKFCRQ

[11] = target: T5, 5-hydroxytryptamine receptor 2B (Homo sapiens, UniProt P41595); assay: Displacement of [3H]LSD from 5HT2B receptor (unknown origin)
[12] = target: T5, 5-hydroxytryptamine receptor 2B; assay: Displacement of [3H]LSD from 5HT2B receptor (unknown origin) at 10 uM

Chain of 5-hydroxytryptamine receptor 2A (Homo sapiens) (P28223 whole entry): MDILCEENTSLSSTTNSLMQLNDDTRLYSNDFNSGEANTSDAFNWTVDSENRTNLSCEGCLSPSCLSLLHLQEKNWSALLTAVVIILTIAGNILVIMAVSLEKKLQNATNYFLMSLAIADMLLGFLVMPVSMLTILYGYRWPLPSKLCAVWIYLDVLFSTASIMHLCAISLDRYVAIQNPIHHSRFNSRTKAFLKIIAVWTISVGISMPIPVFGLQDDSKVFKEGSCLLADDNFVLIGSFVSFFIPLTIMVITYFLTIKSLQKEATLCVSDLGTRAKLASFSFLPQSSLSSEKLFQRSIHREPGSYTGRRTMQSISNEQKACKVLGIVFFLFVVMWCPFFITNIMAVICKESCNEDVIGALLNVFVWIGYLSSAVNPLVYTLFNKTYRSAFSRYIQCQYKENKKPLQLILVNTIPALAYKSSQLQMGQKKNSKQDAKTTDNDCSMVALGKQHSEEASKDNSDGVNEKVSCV
Chain of 5-hydroxytryptamine receptor 7 (Homo sapiens) (P34969 whole entry): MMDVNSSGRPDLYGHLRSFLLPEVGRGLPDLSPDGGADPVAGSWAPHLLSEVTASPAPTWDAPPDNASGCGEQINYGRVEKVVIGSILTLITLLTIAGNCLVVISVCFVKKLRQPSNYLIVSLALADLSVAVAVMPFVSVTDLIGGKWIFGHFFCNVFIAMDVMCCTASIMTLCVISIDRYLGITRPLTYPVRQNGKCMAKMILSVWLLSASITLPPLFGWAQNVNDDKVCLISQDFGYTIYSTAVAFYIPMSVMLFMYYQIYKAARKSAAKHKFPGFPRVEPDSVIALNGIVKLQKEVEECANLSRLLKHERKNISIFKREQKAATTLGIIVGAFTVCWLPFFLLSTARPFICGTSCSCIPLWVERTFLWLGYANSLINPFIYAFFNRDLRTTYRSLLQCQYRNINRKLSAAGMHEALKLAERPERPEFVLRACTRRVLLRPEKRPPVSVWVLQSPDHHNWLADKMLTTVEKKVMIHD
Chain of 5-hydroxytryptamine receptor 1E (Homo sapiens) (P28566 whole entry): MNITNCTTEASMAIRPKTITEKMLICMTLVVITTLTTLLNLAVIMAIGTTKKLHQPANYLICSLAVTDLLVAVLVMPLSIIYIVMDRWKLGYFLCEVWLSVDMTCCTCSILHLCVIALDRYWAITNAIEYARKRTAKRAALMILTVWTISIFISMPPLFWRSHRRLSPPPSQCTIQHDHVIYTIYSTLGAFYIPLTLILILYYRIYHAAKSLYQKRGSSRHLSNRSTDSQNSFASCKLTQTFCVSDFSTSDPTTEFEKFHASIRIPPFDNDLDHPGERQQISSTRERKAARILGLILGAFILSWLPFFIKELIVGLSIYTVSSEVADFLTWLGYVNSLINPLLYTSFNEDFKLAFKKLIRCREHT
T2 sequence (P28222 whole entry): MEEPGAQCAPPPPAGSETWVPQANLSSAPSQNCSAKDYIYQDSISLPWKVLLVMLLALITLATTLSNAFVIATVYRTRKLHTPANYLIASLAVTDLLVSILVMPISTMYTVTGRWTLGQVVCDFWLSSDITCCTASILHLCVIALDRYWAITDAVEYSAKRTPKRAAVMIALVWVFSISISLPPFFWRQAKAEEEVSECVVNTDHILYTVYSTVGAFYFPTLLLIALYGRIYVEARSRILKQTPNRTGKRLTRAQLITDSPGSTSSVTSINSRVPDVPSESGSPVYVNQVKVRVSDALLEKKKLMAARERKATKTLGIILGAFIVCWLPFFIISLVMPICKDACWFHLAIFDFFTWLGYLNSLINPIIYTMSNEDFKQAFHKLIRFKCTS
Chain of 5-hydroxytryptamine receptor 1D (Homo sapiens) (P28221 whole entry): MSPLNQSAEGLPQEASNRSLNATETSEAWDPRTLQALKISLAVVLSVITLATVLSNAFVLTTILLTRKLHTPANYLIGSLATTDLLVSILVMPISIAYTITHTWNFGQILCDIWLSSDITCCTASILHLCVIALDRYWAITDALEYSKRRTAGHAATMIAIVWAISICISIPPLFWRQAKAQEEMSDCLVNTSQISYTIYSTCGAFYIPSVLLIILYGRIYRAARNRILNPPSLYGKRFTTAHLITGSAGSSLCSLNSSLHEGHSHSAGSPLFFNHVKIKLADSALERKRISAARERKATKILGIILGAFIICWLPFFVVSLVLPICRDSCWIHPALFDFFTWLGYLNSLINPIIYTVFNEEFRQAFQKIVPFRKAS
T5 sequence (P41595 whole entry): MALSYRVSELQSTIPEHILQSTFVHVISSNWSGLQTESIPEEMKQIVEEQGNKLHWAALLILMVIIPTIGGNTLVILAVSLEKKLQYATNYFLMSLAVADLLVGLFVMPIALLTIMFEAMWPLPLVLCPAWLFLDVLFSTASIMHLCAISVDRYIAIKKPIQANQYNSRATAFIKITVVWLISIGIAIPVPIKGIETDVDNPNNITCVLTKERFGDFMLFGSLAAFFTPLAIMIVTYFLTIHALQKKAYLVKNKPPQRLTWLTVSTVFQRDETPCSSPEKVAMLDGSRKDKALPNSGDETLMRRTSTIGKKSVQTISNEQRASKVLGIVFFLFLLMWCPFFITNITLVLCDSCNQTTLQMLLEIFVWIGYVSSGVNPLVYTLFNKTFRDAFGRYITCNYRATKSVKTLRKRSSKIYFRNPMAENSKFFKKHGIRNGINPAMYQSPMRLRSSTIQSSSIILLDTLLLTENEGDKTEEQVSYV
Chain of 5-hydroxytryptamine receptor 5A (Homo sapiens) (P47898 whole entry): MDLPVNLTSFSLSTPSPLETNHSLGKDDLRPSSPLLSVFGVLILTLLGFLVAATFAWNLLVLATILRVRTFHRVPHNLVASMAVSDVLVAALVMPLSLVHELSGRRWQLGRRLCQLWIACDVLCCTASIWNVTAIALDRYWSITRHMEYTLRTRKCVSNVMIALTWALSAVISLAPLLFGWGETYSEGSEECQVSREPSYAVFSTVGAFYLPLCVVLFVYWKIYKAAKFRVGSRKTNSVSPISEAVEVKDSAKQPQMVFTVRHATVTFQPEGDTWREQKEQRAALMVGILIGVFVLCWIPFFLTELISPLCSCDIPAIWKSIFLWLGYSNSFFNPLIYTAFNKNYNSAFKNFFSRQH

SMILES	inhibition [1]	inhibition [2]	inhibition [3]	inhibition [4]	inhibition [5]	inhibition [7]	inhibition [8]	inhibition [9]	inhibition [10]	Ki [11]	inhibition [12]	Ki [6]
COc1cc2c3c(c1OCC1CC1)-c1cc4c(cc1CC3N(C)CC2c1ccccc1)OCO4 (stereo not given)	32.4%	5.2%	60.2%	31.9%	42.9%	7.7%	27.4%	6.9%	-9.8%	0.299 µM	77.1%	2.47 µM
COc1cc2c3c(c1OCc1ccc(Br)cc1)-c1cc4c(cc1CC3N(C)CC2c1ccccc1)OCO4 (stereo not given)	-6.6%	-9.3%	2.1%	9.8%	15.8%	-7.4%	-0.1%	–	25.9%	–	24.4%	–
COc1cc2c3c(c1OC)-c1cc4c(cc1CC3N(CC1CC1)CC2c1ccccc1)OCO4 (stereo not given)	9.4%	–	16.2%	22.4%	9.6%	–	3.5%	18.3%	13.3%	1.43 µM	73.7%	–
CCN1CC(c2ccccc2)c2cc(OC)c(OC)c3c2C1Cc1cc2c(cc1-3)OCO2 (stereo not given)	-1.6%	–	23.6%	27.4%	12.8%	-4.1%	5%	8.9%	3.3%	0.419 µM	88.4%	–
CCCCCCOc1c(OC)cc2c3c1-c1cc4c(cc1CC3N(C)CC2c1ccccc1)OCO4 (stereo not given)	49.3%	-6.2%	4.3%	13.4%	19.9%	0.8%	2.4%	–	–	0.663 µM	63.6%	–
COc1cc2c3c(c1O)-c1cc4c(cc1CC3N(C)CC2c1ccccc1)OCO4 (stereo not given)	-2.3%	1.8%	-5.2%	15.8%	29.2%	4.1%	11%	31.3%	24.2%	0.715 µM	50.3%	–

Continued, in another order:

inhibition [1]	inhibition [2]	inhibition [3]	inhibition [4]	inhibition [5]	inhibition [7]	inhibition [8]	inhibition [9]	inhibition [10]	Ki [11]	inhibition [12]	SMILES	Ki [6]
48%	17.6%	41.4%	24%	40.9%	11.6%	7.3%	-5.1%	18.4%	0.601 µM	76.1%	CCCCOc1c(OC)cc2c3c1-c1cc4c(cc1CC3N(C)CC2c1ccccc1)OCO4 (stereo not given)	–
13.1%	5.2%	51.7%	22.4%	32.3%	0.7%	2.1%	8.6%	27%	0.307 µM	84%	CCCOc1c(OC)cc2c3c1-c1cc4c(cc1CC3N(C)CC2c1ccccc1)OCO4 (stereo not given)	1.61 µM
13.5%	-7.6%	20.6%	29.7%	40.1%	-2.7%	10.3%	26%	-0.9%	0.209 µM	83.3%	CCOc1c(OC)cc2c3c1-c1cc4c(cc1CC3N(C)CC2c1ccccc1)OCO4 (stereo not given)	–
28.8%	-9.8%	19.4%	22.6%	47.8%	8.3%	3.3%	24.7%	19.2%	0.416 µM	72.1%	C=CCOc1c(OC)cc2c3c1-c1cc4c(cc1CC3N(C)CC2c1ccccc1)OCO4 (stereo not given)	–
